In patent US11208399B2, “NLRP3 inflammasome inhibitors” (Novartis AG, priority 2019, dated 2021):
Where a name gives a salt, the structure may show the parent alone. Read-outs that look alike come from different tables or passages of the source.

Columns and labels:
[1] = tested on: NF-kB-dependent TNF-α secretion; assay: TNF-α secretion assay in THP-1 cells (counter screen, HTRF); assay type: cell-based; conditions: Pam3CSK4-stimulated, 3 hours
Method in brief: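 THP-1 cells were treated with compound, then stimulated with 1 μg/mL LPS or 100 ng/mL Pam3CSK4 for 3 h. Secreted TNF-α in supernatant was measured by HTRF, with viability monitored in parallel. IC50 from logistic fit of % inhibition versus concentration with Hill coefficient.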

NLRP3 inflammasome = assay: IL-1β secretion assay in PMA-differentiated THP-1 cells, nigericin-activated (HTRF); assay type: cell-based
Procedure: 10 μL supernatant was removed, and IL-1p levels were monitored using an HTRF assay (CisBio, #621L1PEC) according to manufacturers' instructions. Viability and pyroptosis was monitored with the addition of PrestoBlue cell viability reagent (Life Technologies, #A13261) directly to the cell culture plate.
IC50 values were calculated from the plot of percentage of inhibition versus the inhibitor concentration by a logistics fit according to: y=A2+(A1−A2)/(1+(x/IC50)^p) where y is the %-inhibition at the inhibitor concentration, x. A1 is the lowest inhibition value, i.e. 0%, and A2 the maximum inhibition value, i.e. 100%. The exponent, p, is the Hill coefficient. The curve fitting was conducted with an internally developed software suite.
NLRP3-dependent IL-1β secretion was stimulated in PMA-differentiated THP-1 cells by the addition of nigericin, and cytokines were measured in the […] after 3 hours. As discussed above, activation of the NLRP3 inflammasome requires both an NF-kB-dependent priming step and the addition of a NLRP3 activator.

[2] = read-out: IL-1β IC50, 15 μM nigericin, 3 hours
[3] = Homo sapiens, 15 μM nigericin, 3 hours, read-out: IL-1β IC50

Compound	IC50 [1]	IC50 (NLRP3 inflammasome; [2])	IC50 ([1]; Homo sapiens)	IC50 (NLRP3 inflammasome; [3])
Cc1cc(C(F)(F)F)cc(O)c1-c1ccc(N[C@@H]2CC[C@@H]3CC[C@H]2N3C)nn1 [Ex 85b, 3-Methyl-2-(6-(((1R,2R,5R)-8-methyl-8-azabicyclo[3.2.1]octan-2-yl)amino)pyridazin-3-yl)-5-(trifluoromethyl)phenol]	> 100 µM	0.0013 µM		
Cc1cc(C(F)(F)F)cc(O)c1-c1ccc(N[C@@H]2CC[C@@H]3CC[C@H]2N3CCO)nn1 [Ex 86b, 2-(6-(((1R,2R,5R)-8-(2-Hydroxyethyl)-8-azabicyclo[3.2.1]octan-2-yl)amino)pyridazin-3-yl)-3-methyl-5-(trifluoromethyl)phenol]	> 100 µM	0.0018 µM		
Cc1cc(C(F)(F)F)cc(O)c1-c1ccc(NC[C@](C)(O)CO)nn1 [Ex 88a, (S)-3-((6-(2-Hydroxy-6-methyl-4-(trifluoromethyl)phenyl)pyridazin-3-yl)amino)-2-methylpropane-1,2-diol]			41 µM	0.0623 µM
Cc1cc(C(F)(F)F)cc(O)c1-c1ccc(NC[C@@](C)(O)CO)nn1 [Ex 88b, (R)-3-((6-(2-Hydroxy-6-methyl-4-(trifluoromethyl)phenyl)pyridazin-3-yl)amino)-2-methylpropane-1,2-diol]			> 100 µM	0.0605 µM
Cc1cc(C(F)(F)F)cc(O)c1-c1ccc(N[C@H]2CC[C@H](O)[C@@H]2O)nn1 [Ex 89a, (1S,2R,3S)-3-((6-(2-Hydroxy-6-methyl-4-(trifluoromethyl)phenyl)pyridazin-3-yl)amino) cyclopentane-1,2-diol]			> 100 µM	0.0597 µM
Cc1cc(C(F)(F)F)cc(O)c1-c1ccc(N[C@@H]2CC[C@@H](O)[C@H]2O)nn1 [Ex 89b, (1R,2S,3R)-3-((6-(2-Hydroxy-6-methyl-4-(trifluoromethyl)phenyl)pyridazin-3-yl)amino)cyclopentane-1,2-diol]			> 100 µM	0.182 µM
Cc1cc(C(F)(F)F)cc(O)c1-c1ccc(NC[C@@H](O)C(C)C)nn1 [Ex 90a, (S)-2-(6-((2-Hydroxy-3-methylbutyl)amino)pyridazin-3-yl)-3-methyl-5-(trifluoromethyl)phenol]			> 33 µM	0.0642 µM
Cc1cc(C(F)(F)F)cc(O)c1-c1ccc(NC[C@H](O)C(C)C)nn1 [Ex 90b, (R)-2-(6-((2-Hydroxy-3-methylbutyl)amino)pyridazin-3-yl)-3-methyl-5-(trifluoromethyl) phenol]			> 100 µM	0.115 µM
Cc1cc(C(F)(F)F)cc(O)c1-c1ccc(NCC2(O)CCCC2)nn1 [Ex 98, 2-(6-(((1-Hydroxycyclopentyl)methyl)amino)pyridazin-3-yl)-3-methyl-5-(trifluoromethyl)phenol]			> 100 µM	0.115 µM
Cc1cc(-c2c(C)cc(C(F)(F)F)cc2O)nnc1NC1CCC(=O)N(C)C1 (stereo not drawn) [Ex 99, 5-((6-(2-Hydroxy-6-methyl-4-(trifluoromethyl)phenyl)-4-methylpyridazin-3-yl)amino)-1-methylpiperidin-2-one]			> 100 µM	0.075 µM
Cc1cc(C)c(-c2ccc(NCCc3ccc(S(N)(=O)=O)cc3)nn2)c(O)c1 [Ex 103, 4-(2-((6-(2-Hydroxy-4,6-dimethylphenyl)pyridazin-3-yl)amino)ethyl)benzenesulfonamide]			16 µM	0.136 µM
Cc1cc(-c2c(C)cc(C(F)(F)F)cc2O)nnc1N[C@@H]1CCC[N+](C)([O-])C1 (stereo partly drawn) [Ex 104, (3R)-3-((6-(2-Hydroxy-6-methyl-4-(trifluoromethyl)phenyl)-4-methylpyridazin-3-yl)amino)-1-methylpiperidine 1-oxide TFA-salt]			> 100 µM	0.059 µM
